Among the data in DBAASP are MIC values, retold here.

In brackets after ≈: the same amount, converted by molar mass. Several values for one entry are separate records, joined by “and”; a condition that tells them apart may be missing. Identical values can stand only once.

Some test systems named below: Shigella dysenteriae; Bacillus subtilis; Candida albicans; Escherichia coli; Staphylococcus aureus; Bacillus subtilis 168; Escherichia coli B; Pseudomonas aeruginosa; Bacillus cereus; Acinetobacter baumannii; Klebsiella pneumoniae; Escherichia coli UB1005.
What all share (assay): ≥ marks a high value that may be exact or a test limit, other limits are often not marked, values filed in µg/mL are converted to µM
For experiment [1], the system named is Candida albicans ATCC 2002.
Experiment [2] deals with Escherichia coli ATCC 25922.
Experiment [3] concerns Staphylococcus aureus ATCC 2592.
The test system of experiment [4] is Bacillus subtilis ATCC 6633.
Experiment [5] concerns Enterococcus faecalis ATCC 29212.
In experiment [6] the test system is Escherichia coli DH5alpha.
The test system of experiment [7] is Klebsiella pneumoniae ATCC 13883.
The subject of experiment [8] is Pseudomonas aeruginosa ATCC 27853.
In experiment [9] the test system is Salmonella enterica subsp. enterica serovar Typhimurium ATCC 14028.
The subject of experiment [10] is Staphylococcus aureus ATCC 25923.
The test system of experiment [11] is Acinetobacter baumannii ATCC 19606.
Experiment [12] concerns Salmonella enterica subsp. enterica serovar Typhimurium C77-31.
Experiment [13] concerns Staphylococcus aureus ATCC 29213.
In experiment [14] the test system is Staphylococcus epidermidis ATCC 12228.

The MIC is the least concentration at which growth counts as inhibited. For the compound `CC[C@H](C)[C@H](NC(=O)[C@H](CC(C)C)NC(=O)[C@@H](N)Cc1ccccc1)C(=O)N[C@H](C(=O)N[C@@H](CCCN=C(N)N)C(=O)N[C@@H](CCCN=C(N)N)C(=O)N1CCC[C@H]1C(=O)N[C@H](C(=O)N[C@H](C(=O)N[C@@H](CC(C)C)C(=O)NCC(=O)N[C@@H](CC(C)C)C(=O)N[C@@H](CC(C)C)C(N)=O)C(C)C)[C@@H](C)CC)[C@@H](C)CC` [FLIIRRPIVLGLL], the MIC in experiment [1] was 8.21 µM (≈ 12.5 µg/mL); in [2] it was 19.7 µM (≈ 30 µg/mL); in [3], 6.57 µM (≈ 9.99 µg/mL).
Take `CC[C@H](C)[C@@H]1NC(=O)[C@@H]2CCCN2C(=O)[C@@H](NC(=O)[C@H](Cc2ccccc2)NC(=O)[C@H](CC(C)C)NC(=O)[C@@H](NC(=O)[C@@H]2CCCN2C(=O)[C@@H](NC(=O)[C@@H](NC(=O)[C@H](CCCCN)NC(=O)[C@H](Cc2ccccc2)NC(=O)[C@H](C)NC(=O)[C@@H](NC(=O)[C@H](CCCCN)NC(=O)[C@H](CC(C)C)NC(=O)[C@H](CC(C)C)NC(=O)[C@@H](NC(=O)[C@H](CO)NC(=O)[C@H](CC(C)C)NC(=O)[C@@H](N)Cc2ccccc2)[C@@H](C)O)C(C)C)C(C)C)C(C)C)[C@@H](C)O)CSSC[C@@H](C(N)=O)NC(=O)[C@H](CCCCN)NC(=O)[C@H](CCCCN)NC(=O)[C@H]([C@@H](C)O)NC1=O` [FLSTLLKVAFKVVPTLFCPITKKC]: the MIC in [4] came out at 1.74 µM (≈ 4.69 µg/mL); in experiment [1], 1.74 µM (≈ 4.69 µg/mL); in [2], 6.95 µM (≈ 18.7 µg/mL); against Shigella dysenteriae, 3.48 µM (≈ 9.37 µg/mL); in experiment [3], 0.434 µM (≈ 1.17 µg/mL).
Consider `CC[C@H](C)[C@H](NC(=O)CN)C(=O)NCC(=O)N[C@@H](CCCCN)C(=O)N[C@@H](Cc1ccccc1)C(=O)N[C@@H](CC(C)C)C(=O)N[C@@H](CCCCN)C(=O)N[C@@H](CCCCN)C(=O)N[C@@H](C)C(=O)N[C@@H](CCCCN)C(=O)N[C@@H](CCCCN)C(=O)NCC(=O)N[C@H](C(=O)NCC(=O)N[C@@H](C)C(=O)N[C@H](C(=O)N[C@@H](CC(C)C)C(=O)N[C@@H](CCCCN)C(=O)N[C@H](C(=O)N[C@@H](CC(C)C)C(=O)N[C@H](C(=O)N[C@H](C(=O)NCC(=O)N[C@@H](CC(C)C)C(=O)O)[C@@H](C)O)[C@@H](C)O)C(C)C)C(C)C)[C@@H](C)CC` [GIGKFLKKAKKGIGAVLKVLTTGL], for which the MIC with Bacillus subtilis worked out at 4 µM (≈ 9.76 µg/mL); in experiment [5], 64 µM (≈ 156 µg/mL); in experiment [6] it was 1 µM (≈ 2.44 µg/mL); in experiment [7] it was 1 µM (≈ 2.44 µg/mL); in [8], 2 µM (≈ 4.88 µg/mL); in experiment [9], 2 µM (≈ 4.88 µg/mL). In addition, in experiment [10], the MIC is 2 µM (≈ 4.88 µg/mL).
`CC[C@H](C)[C@@H]1NC(=O)[C@H](CC(C)C)NC(=O)[C@H](CCC(N)=O)NC(=O)[C@H](Cc2ccc(O)cc2)NC(=O)[C@H](C)NC(=O)[C@@H](NC(=O)[C@H](CCCCN)NC(=O)[C@@H](NC(=O)[C@H](CC(C)C)NC(=O)[C@@H](NC(=O)[C@H](Cc2ccccc2)NC(=O)[C@H](CC(C)C)NC(=O)CN)[C@@H](C)O)[C@@H](C)CC)CSSC[C@@H](C(=O)N[C@@H](CC(N)=O)C(=O)O)NC(=O)[C@H](C)NC(=O)[C@H](C(C)C)NC(=O)[C@H]([C@@H](C)O)NC(=O)[C@@H]2CCCN2C(=O)[C@H](C)NC1=O` [GLFTLIKCAYQLIAPTVACN]: the MIC with Bacillus subtilis stood at 16.6 µM (≈ 35.6 µg/mL); against Candida albicans, 4.16 µM (≈ 8.89 µg/mL); against Escherichia coli, 16.6 µM (≈ 35.6 µg/mL); against Staphylococcus aureus, 8.32 µM (≈ 17.8 µg/mL).
As for `CC[C@H](C)[C@H](NC(=O)[C@H](CC(C)C)NC(=O)[C@H](Cc1cnc[nH]1)NC(=O)CNC(=O)[C@H](CC(C)C)NC(=O)[C@@H](NC(=O)[C@H](CCCCN)NC(=O)[C@H](CO)NC(=O)[C@H](Cc1c[nH]c2ccccc12)NC(=O)[C@H](CCSC)NC(=O)CN)[C@@H](C)CC)C(N)=O` [GMWSKILGHLI], the MIC came out at 3.5 µM (≈ 4.39 µg/mL) with Bacillus subtilis 168, 7 µM (≈ 8.78 µg/mL) with Escherichia coli B, 100 µM (≈ 125 µg/mL) against Pseudomonas aeruginosa and 15.5 µM (≈ 19.4 µg/mL) in the experiment with Staphylococcus aureus.
For the compound `CSCC[C@@H]1NC(=O)[C@H](CC(C)C)NC(=O)[C@H](C)NC(=O)[C@H](CCCN=C(N)N)NC(=O)[C@H](Cc2ccccc2)NC(=O)[C@H](CC(C)C)NC(=O)CNC(=O)[C@H](CCCCN)NC(=O)[C@@H](NC(=O)[C@H](CCCN=C(N)N)NC(=O)[C@@H]2CCCN2C(=O)[C@@H](NC(=O)[C@H](CO)NC(=O)[C@H](Cc2ccc(O)cc2)NC(=O)[C@H](C)NC(=O)[C@@H](N)CCCCN)[C@@H](C)O)CSSC[C@@H](C(=O)N[C@@H](Cc2c[nH]c3ccccc23)C(=O)N[C@@H](CC(C)C)C(N)=O)NC1=O` [KAYSTPRCKGLFRALMCWL], the MIC with Bacillus cereus stood at 22.3 µM (≈ 49.9 µg/mL); in experiment [1], 22.3 µM (≈ 49.9 µg/mL); in experiment [2], 5.57 µM (≈ 12.5 µg/mL); in the experiment on Pseudomonas aeruginosa, 22.3 µM (≈ 49.9 µg/mL); against Shigella dysenteriae it was 2.78 µM (≈ 6.24 µg/mL); in experiment [3] it was 5.57 µM (≈ 12.5 µg/mL).
As to `CC[C@H](C)[C@H](NC(=O)[C@@H](N)CCCCN)C(=O)N[C@@H](C)C(=O)N[C@@H](CC(C)C)C(=O)N[C@@H](CCCCN)C(=O)N[C@@H](C)C(=O)N[C@@H](CC(C)C)C(=O)N[C@@H](CCCCN)C(=O)N[C@@H](C)C(=O)N[C@@H](CC(C)C)C(=O)N[C@@H](CCCCN)C(=O)N[C@@H](C)C(=O)N[C@@H](CC(C)C)C(=O)NCC(=O)N[C@@H](CCCCN)C(=O)N[C@@H](C)C(=O)N[C@@H](CC(C)C)C(=O)N[C@@H](CCCCN)C(=O)N[C@@H](C)C(=O)N[C@@H](CC(C)C)C(N)=O` [KIALKALKALKALGKALKAL], the MIC in experiment [11] turned out to be 2 µM (≈ 4.12 µg/mL); in the experiment on Acinetobacter baumannii it was 22.6 µM (≈ 46.7 µg/mL); in experiment [2], 1.41 µM (≈ 2.92 µg/mL); against Escherichia coli, 32 µM (≈ 66 µg/mL); in experiment [7] it was 2.83 µM (≈ 5.83 µg/mL); with Klebsiella pneumoniae, 22.6 µM (≈ 46.7 µg/mL). The MIC amounted to 11.3 µM (≈ 23.3 µg/mL) in experiment [8], 32 µM (≈ 66 µg/mL) with Pseudomonas aeruginosa, 4 µM (≈ 8.25 µg/mL) in experiment [10] and 2.83 µM (≈ 5.83 µg/mL) in the experiment with Staphylococcus aureus.
Consider `CC[C@H](C)[C@H](NC(=O)[C@H](CC(C)C)NC(=O)[C@H](Cc1cnc[nH]1)NC(=O)CNC(=O)[C@H](CC(C)C)NC(=O)[C@@H](NC(=O)[C@H](CCCCN)NC(=O)[C@H](CO)NC(=O)[C@H](Cc1c[nH]c2ccccc12)NC(=O)[C@H](CCSC)NC(=O)[C@@H](N)CCCCN)[C@@H](C)CC)C(=O)N[C@@H](CCCN=C(N)N)C(N)=O` [KMWSKILGHLIR], for which the MIC is 2.1 µM (≈ 3.11 µg/mL) in the experiment on Bacillus subtilis 168, 6.3 µM (≈ 9.33 µg/mL) with Escherichia coli B, 73.3 µM (≈ 109 µg/mL) in the experiment on Pseudomonas aeruginosa and 41.7 µM (≈ 61.8 µg/mL) against Staphylococcus aureus.
Consider `CC(C)C[C@H](NC(=O)[C@H](CCCN=C(N)N)NC(=O)[C@H](CC(N)=O)NC(=O)[C@H](C)NC(=O)[C@H](CCCN=C(N)N)NC(=O)[C@H](CC(C)C)NC(=O)[C@H](Cc1c[nH]c2ccccc12)NC(=O)[C@H](CC(C)C)NC(=O)[C@H](CCCN=C(N)N)NC(=O)[C@H](CCCN=C(N)N)NC(=O)[C@H](CC(C)C)NC(=O)[C@H](CC(C)C)NC(=O)[C@H](CCCN=C(N)N)NC(=O)[C@H](CC(N)=O)NC(=O)[C@H](C)NC(=O)[C@H](CCCN=C(N)N)NC(=O)[C@H](CC(C)C)NC(=O)[C@H](Cc1c[nH]c2ccccc12)NC(=O)[C@H](CC(C)C)NC(=O)[C@H](CCCN=C(N)N)NC(=O)[C@H](CCCN=C(N)N)NC(=O)[C@@H](N)CC(C)C)C(N)=O` [LRRLWLRANRLLRRLWLRANRL], for which the MIC in [5] was 2 µM and 4 µM; in experiment [2], 4 µM (≈ 11.7 µg/mL); in experiment [8], 4 µM (≈ 11.7 µg/mL); in experiment [12] it was 2 µM and 4 µM; in experiment [13], 2 µM and 4 µM; in experiment [14], 2 µM and 4 µM.
With `CC(C)C[C@H](NC(=O)[C@H](CCCN=C(N)N)NC(=O)[C@H](Cc1c[nH]c2ccccc12)NC(=O)[C@H](CCCN=C(N)N)NC(=O)[C@@H](NC(=O)[C@H](CCCCN)NC(=O)[C@H](Cc1c[nH]c2ccccc12)NC(=O)[C@H](CCCN=C(N)N)NC(=O)[C@H](CC(C)C)NC(=O)[C@H](Cc1c[nH]c2ccccc12)NC(=O)[C@@H](N)CCCN=C(N)N)[C@@H](C)O)C(=O)N[C@@H](CCCCN)C(N)=O` [RWLRWKTRWRLK], the MIC in experiment [2] was found to be 2 µM (≈ 3.57 µg/mL); against Escherichia coli UB1005, 4 µM (≈ 7.14 µg/mL); in experiment [12] it was 8 µM (≈ 14.3 µg/mL); in [10], 16 µM (≈ 28.5 µg/mL); in experiment [13] it was 4 µM (≈ 7.14 µg/mL); in experiment [14], 16 µM (≈ 28.5 µg/mL).
